row,SMILES,melting point
1,O=c1ccn(C2=CCN(Cc3ccc(Br)cc3)C=C2)cc1,166 to 168 °C
2,CCC(C)(Cc1cn(C)c2ccc(OC)cc12)[N+](=O)[O-] (centres undefined),95 to 96 °C
3,CC(C)C(O)(C#Cc1ccsc1)c1cncnc1 (centres undefined),102 to 105 °C
4,O=c1oc(-c2cccc(C(F)(F)F)c2)nc2cccc(F)c12,115 to 121 °C
5,Cc1ccc2c(c1)C(c1cn(C)c(=O)[nH]c1=S)c1nc(C)oc1C=C2 (centres undefined),238 to 240 °C
6,CC(C)(C)OC(=O)N1CCN(c2ccc(S(=O)(=O)c3ccccc3)c(N)c2)CC1,135 to 137 °C
7,O=C(Nc1cccc(Cl)c1)c1cc(Br)ccc1O,231 to 232 °C
8,CCCCc1cn(-c2ccccc2Cl)c(=O)n1Cc1ccc(-c2ccccc2-c2nnn[nH]2)nc1,81 to 83 °C
9,CC(O)c1nccc2ccccc12 (centres undefined),60 to 62 °C
10,COc1cccc(COc2ncc(F)c(N/N=C/c3cccs3)n2)c1,136 to 139 °C
11,CNC(=O)c1ccc(F)c2c1CC(N(CCCCc1c[nH]c3ccc(F)cc13)CC1CC1)CO2 (centres undefined),112 °C
12,COc1cc(OC)cc(C(=O)N[C@H]2CCN(C)C[C@H]2c2ccccc2)c1 (relative stereo),123 to 124 °C
13,CCOC(=O)c1cnc(Nc2ccccc2OC(C)C)[nH]c1=O,205 to 207 °C
14,CC1(C)C(C#CC(=O)OCC(Cl)(Cl)Cl)C1C(=O)OC(C#N)c1cccc(Oc2ccccc2)c1 (centres undefined),101 °C
15,COc1ccc(S(=O)(=O)N2C(=O)C(O)(c3ccccc3OC)c3cc(Cl)c(C)cc32)c(OC)c1 (centres undefined),207 to 208 °C
16,CCCCNC(=O)Oc1cccc(NC(=O)CC(C)=O)c1,112 °C
17,CC(C)(C)OC(=O)N1CC(CO)c2c1cc([N+](=O)[O-])c1ccccc21 (centres undefined),176 °C
18,CCCN(CC(O)C(Cc1ccccc1)NC(=O)C(C)CS(C)(=O)=O)S(=O)(=O)c1ccc(OC)cc1 (centres undefined),88 to 92 °C
19,N#Cc1ccc(C(=O)NNc2c(Cl)cc(C(F)(F)F)cc2Cl)cc1,185 to 186 °C
20,COc1ccc(C2CCCN(C)C2)c2c1NC(=O)C2 (centres undefined),170 °C
21,NC(=O)c1ccc(-c2cccc(N)c2)cc1,206 to 208 °C
22,C=CCc1cc(-c2csc(-c3ccc(OCC)c(OCC)c3)n2)cc(C(=O)OC)c1O,118 to 119 °C
23,COc1ccc(C2(O)CCN(Cc3ccccc3)CC2)cc1OC,112 to 114 °C
24,COc1cc(F)ccc1C(C)(C)CC#N,80 to 83 °C
25,Cc1nc(-n2ccc(O)cc2=O)sc1C(=O)NCc1cccnc1,238 to 240 °C

row,SMILES,melting point
1,CC(C)(Oc1ccc(Cl)cc1)C(=O)NCCO[N+](=O)[O-],81 to 82 °C
2,Nc1nc2c3ccccc3ccn2n1,164 to 165 °C
3,CN1CCN(C(=O)c2ccc(-c3cnc4c(c3)N(Cc3cc(F)ccc3F)CC(C)(C)N4)cc2)CC1,191 to 192 °C
4,Cc1ccccc1COC1COC(c2ccco2)OC1 (centres undefined),64 to 65 °C
5,Cc1nc(N2CCc3nc(N)sc3CC2)c([N+](=O)[O-])c(=O)[nH]1,> 200 °C
6,CCOC(=O)C(C#N)=C(SC)N1CCc2ccccc2CC1,88 to 93 °C
7,CC(C)c1ccc(Nc2nc(N)nc3c2-c2ccccc2C3)cc1,178 to 180 °C
8,CCOC(=O)CCNC(=O)c1ccc2c(CC)nn(C3CCCC3)c2c1,74 to 76 °C
9,"O=C(CN1CCCNC1=O)N1CCC(C2c3ncc(Br)cc3CCc3cc(Cl)cc(Br)c32)CC1 (single isomer, unassigned; (+))",155 to 156 °C
10,CC(=O)NCn1cc(-c2nc(Nc3ccccn3)sc2C)cn1,175 °C
11,CC1CC(C)CN(S(=O)(=O)c2ccc(F)c(C(=O)O)c2)C1 (centres undefined),140 °C
12,CS(=O)(=O)n1ccc2c1CC(c1ccccc1)CC2=O (centres undefined),172 to 173 °C
13,COc1ccc2cnc(Cl)nc2c1C(C)C,135 to 137 °C
14,CCCCCCCCCCCCCCCCC(O)CN (centres undefined),75.2 to 76.5 °C
15,CC(C)C(OC(=O)/C=C/c1ccccc1)OC(=O)NC1(C(=O)O)CC1 (centres undefined),148 to 150 °C
16,CCC(=O)NCC1CC1c1cccc2nscc12 (centres undefined),84 to 86 °C
17,COc1cn(-c2ccc(-c3ccccn3)cc2F)nc(-c2ccnn2-c2ccccc2)c1=O,206 to 208 °C
18,O=C(O)c1cn(C2CC2)c2cc(-c3ccncc3)ccc2c1=O,278 to 281 °C
19,COc1cc2c(cc1-c1ncco1)-c1c(-c3cccs3)c3c(n1CC2)C(=O)N(C(C)(C)C)CCC3,230 to 231 °C
20,COc1ccc(-c2nccc(C)c2OC2SCC(O)C(O)C2O)cc1 (centres undefined),101 °C
21,CCCS(=O)(=O)c1sc(C(N)=O)c2c1-c1c(cnn1C)CC2,142 to 143 °C
22,OCCCc1cn(-c2ccc(C(F)(F)F)cn2)nc1-c1ccccc1,99 to 100 °C
23,CCOC(=O)CCc1cccc2c(=O)c3cc(C(=O)OC)c(OCCCCC=Cc4ccc(OC)cc4)cc3oc12,107 to 109 °C
24,CC(=O)OC1CCC2(CO)C(CCC3C4=CCC(OC(=O)C(C)(C)C)C4(C)CCC32)C1 (centres undefined),133 to 134 °C
25,CCOC(=O)COC1OCC[C@@H]1NC(=O)[C@H](Cc1ccccc1)NC(=O)OCc1ccccc1 (some centres undefined),103 to 106 °C

row,SMILES,melting point
1,COc1ccc(-c2ccc(N3C[C@H](CNC(C)=O)OC3=O)cc2F)ccc1=O,227 to 228 °C
2,C[C@H]1C(=O)OCCN1CC=CC(=O)Nc1cc2c(Nc3ccc(F)c(Cl)c3)ncnc2cc1OCC1CC1,182 °C
3,CCc1cc(Br)cc(CC)c1N=C(c1ccccc1)c1ccccc1,112 °C
4,Cn1c(CNC(=O)Nc2cccc(C(=O)O)c2)c(-c2ccccc2)c2cc(Cl)ccc2c1=O,236 to 239 °C
5,COc1cc2nc(-c3n[nH]cc3NC(=O)N(C)C)[nH]c2cc1Cl,> 300 °C
6,CCNS(=O)(=O)c1nc2ccccc2n1CC,135 to 139 °C
7,COC(=O)c1c(C)nn(-c2ccccn2)c1S(N)(=O)=O,196 to 198 °C
8,CCCCCCCCNC(=O)C1=C(C(=O)Nc2cc(OC3CCCC3)c(Cl)cc2F)CCCC1,127 to 130 °C
9,CCC(CC)c1ccc(Cl)c2nc3n(c12)CCCN3c1cnc(N(C)C)cc1C,228 to 230 °C
10,OC1(F)CC(c2ccccc2)=Nc2ccccc21 (centres undefined),298 to 302 °C
11,COc1cc(C#N)ccc1-c1cc2cc(Cl)c(Cl)cc2[nH]1,241 to 244 °C
12,CCNC(=NC#N)Nc1ccc(C2=NNC(=O)CC2C)cc1 (centres undefined),208 to 209 °C
13,O=C(CCc1ccc2cccc(O)c2n1)NO,165 to 167 °C
14,COc1ccc(F)cc1C(C)(C)CC(O)(Cn1ncc(=O)c2ccccc21)C(F)(F)F (centres undefined),122 to 123 °C
15,CCC1CC(=Cc2ccccc2Cl)C(=O)O1 (centres undefined),38 to 39 °C
16,Cc1cc(-c2cc(C(F)(F)F)n3ncc(C(=O)Nc4cccc(S(N)(=O)=O)c4)c3n2)ccc1C(F)(F)F,245 °C
17,COC(=O)c1ccc(Cc2c(Cl)n(C)c3cc(Cl)c(CCNC(=O)N(C)C)cc23)c(OC)c1,186 to 189 °C
18,COc1cc(C(=O)NS(=O)(=O)c2ccccc2Cl)ccc1Cc1cn(C)c2ccc(CCNC(=O)N3CCOCC3)cc12,175 to 181 °C
19,Clc1cc(Cl)c(CBr)c(Cl)c1,51 to 52 °C
20,Cc1oc(-c2ccccc2)nc1COc1cccc(C=O)c1,67 to 68 °C
21,Cc1cccc(-c2[nH]c(C(C)C)nc2-c2cccc(-c3ccc([N+](=O)[O-])cc3)c2)n1,95 to 105 °C
22,COc1cc(-c2cccc3ccccc23)nc(N)n1,160 °C
23,N#Cc1cnc(Nc2ccc(F)cc2)nc1-c1ccc(N)nc1,289 °C
24,CN1CCN(CCCNc2ncc3cc(-c4c(Cl)cccc4Cl)c(N)nc3n2)CC1,208 to 211 °C
25,Cc1ccc2c(c1)/C(=N\NC(N)=O)C(=O)N2CCN(C(C)C)C(C)C,159 to 161 °C

row,SMILES,melting point
1,CCc1ccccc1N1CCN(C(=S)Nc2nc3ccccc3nc2OC)CC1,141 to 143 °C
2,Cc1cc(N)c([N+](=O)[O-])cc1OS(C)(=O)=O,128 °C
3,COc1ccc2cc3c(Cl)c(C#N)cnc3cc2c1,258 to 260 °C
4,COc1ccc(C2=NN(CCCCOc3ccc(C(=O)O)cc3)C(=O)[C@H]3CC=CC[C@@H]23)cc1Cl (relative stereo),169 to 171 °C
5,CC(C)[Si](C)(C)CCCSCCNC(=O)n1cc(F)c(=O)[nH]c1=O,113 to 114 °C
6,COc1cccc(Cn2cc3c(-c4cccc(C(=O)NCCO)c4)cccc3n2)c1,176 to 177 °C
7,O/N=C(\Cl)c1cccc(Cl)c1,58 to 60 °C
8,O=C(OCC1OC(Oc2ccc([N+](=O)[O-])cc2)C(OC(=O)c2ccccc2)C(OC(=O)c2ccccc2)C1O)c1ccccc1 (centres undefined),180 to 181 °C
9,CCCn1cc(Cc2ccc(C(=O)OC)cc2OC)c2cc(CCC(=O)O)ccc21,109 to 111 °C
10,c1ccc(-c2c[nH]c3ccccc23)cc1,148 to 149 °C
11,COc1ccc(Cn2cnc(=O)c3[nH]c(C(C)C)nc32)cc1OCc1ccccc1,233 to 235 °C
12,COc1ccc(CNc2c(OCCC(O)c3ccc(Cl)cc3)n[nH]c(=O)c2Br)cc1OC (centres undefined),190 to 196 °C
13,CCc1cc(-c2[nH]c3ccc(OC)cc3c2C)cc(CC)c1O,122 to 124 °C
14,CCc1c(-c2ccncc2)[nH]c2ccc(C3=NNC(=O)CC3)cc12,> 300 °C
15,CSc1ccc(-c2coc3ccc(-c4nnc(O)o4)cc23)cc1,211 to 212 °C
16,Cc1ncc2c(n1)-c1ccc(Cl)cc1C(c1ccccc1F)=NC2,104 to 107 °C
17,Nc1c(F)c(F)c(OC(F)F)c2c1c(=O)c(C(=O)O)cn2C1CC1,284 to 286 °C
18,CSc1ccc(C=CC(=O)c2ccc(N(C)C)cc2)cc1,150 °C
19,COC(=O)/C=C/c1ccc(OCCCC(=O)OC)cc1O,108 to 112 °C
20,CCCCCCC[C@H]1C(=O)OC[C@H](NC(=O)c2nccc(OC)c2O)C(=O)O[C@@H](C)[C@@H]1OC(=O)C(C)C,131 to 134 °C
21,N#Cc1cc(F)ccc1N1CCN(Cc2cn3cc(Cl)ccc3n2)CC1,179 to 180 °C
22,CCCc1ccc(-c2ncc(C#N)c(Cl)n2)cc1,109 to 110 °C
23,c1cc(OCC2CO2)c2nonc2c1 (centres undefined),75 °C
24,Cc1ccc(C(=O)c2cnn3c(-c4cccc(N(C)C(=O)C5CC5)c4)ccnc23)cc1,189 to 190 °C

# From a melting point compilation (Tetko et al.; mined from patent text by program, amines drawn as free bases though some values may be those of a salt)
